Data taken from ChEMBL document CHEMBL4616618, “Design and synthesis of a folate-receptor targeted diazepine-ring-opened pyrrolobenzodiazepine prodrug conjugate” (Bioorg Med Chem Lett, 2020).
Active and inactive are the calls of the source. The calls are words filed in the database; no cut-off is given here.

How the values were obtained:
[1] = Antagonist activity at folate receptor in human KB cells after 2 hrs; type: cell-based
KB [2] = assay: Antitumor activity against FR-positive human KB cells xenografted in nu/nu mouse assessed as reduction in tumor growth at 2 umol/kg administered as single dose for 1 week; type: functional, cell-based
[3] = Toxicity in mouse xenografted with FR-positive human KB cells assessed as body weight loss at 2 umol/kg administered as single dose for 1 week; type: cell-based; details: in vivo, 168 h
[4] = Antagonist activity at folate receptor in human KB cells after 2 hrs in presence of 100 uM folic acid; type: cell-based
[5] = Toxicity in mouse xenografted with FR-positive human KB cells assessed as body weight loss at 300 nmol/kg administered as single dose and measured up to 96 days post tumor implantation; type: cell-based; details: in vivo, 2304 h
KB [6] = assay: Antitumor activity against FR-positive human KB cells xenografted in nu/nu mouse at 300 nmol/kg administered as single dose for 1 week; type: functional, cell-based
[7] = Toxicity in mouse xenografted with FR-positive human KB cells assessed as tissue degeneration at 300 nmol/kg administered as single dose for 1 week; type: cell-based; details: in vivo, 168 h

Compound: C=C1C[C@@H](C2OCCN2C(=O)OCCSSC[C@@H](NC(=O)[C@H](CCC(=O)NC[C@H](O)[C@@H](O)[C@H](O)[C@H](O)CO)NC(=O)[C@@H](CCC(=O)O)NC(=O)[C@H](CCC(=O)NC[C@H](O)[C@@H](O)[C@H](O)[C@H](O)CO)NC(=O)[C@@H](CCC(=O)O)NC(=O)[C@H](CCC(=O)NC[C@H](O)[C@@H](O)[C@H](O)[C@H](O)CO)NC(=O)CC[C@H](NC(=O)c2ccc(NCc3cnc4nc(N)[nH]c(=O)c4n3)cc2)C(=O)O)C(=O)O)N(C(=O)c2cc(OC)c(OCCCCCOc3ccc(-c4nc5ccc(-c6nc7cc(N8CCN(C)CC8)ccc7[nH]6)cc5[nH]4)cc3)cc2N)C1 (some centres undefined)
- IC50 [1]: 0.658 nM
- Activity (KB [2]): Active
- Activity [3]: Toxic
- IC50 [4]: 84.3 nM

Compound: C=C1C[C@H]2C(=O)Nc3cc(OCCCCCOc4cc(N)c(C(=O)N5CC(=C)C[C@H]5C5OCCN5C(=O)OCCSSC[C@H](NC(=O)[C@H](CC(=O)O)NC(=O)[C@H](CC(=O)O)NC(=O)[C@H](CCCNC(=N)N)NC(=O)[C@H](CC(=O)O)NC(=O)CC[C@H](NC(=O)c5ccc(NCc6cnc7nc(N)[nH]c(=O)c7n6)cc5)C(=O)O)C(=O)O)cc4OC)c(OC)cc3C(=O)N2C1 (some centres undefined)
- IC50 [1]: 1.12 nM
- IC50 [4]: 696 nM

Compound: C=C1C[C@@H](C2OCCN2C(=O)OCCSSC[C@@H](NC(=O)[C@H](CCC(=O)NC[C@H](O)[C@@H](O)[C@H](O)[C@H](O)CO)NC(=O)[C@@H](CCC(=O)O)NC(=O)[C@H](CCC(=O)NC[C@H](O)[C@@H](O)[C@H](O)[C@H](O)CO)NC(=O)[C@@H](CCC(=O)O)NC(=O)[C@H](CCC(=O)NC[C@H](O)[C@@H](O)[C@H](O)[C@H](O)CO)NC(=O)CC[C@H](NC(=O)c2ccc(NCc3cnc4nc(N)[nH]c(=O)c4n3)cc2)C(=O)O)C(=O)O)N(C(=O)c2cc(OC)c(OCCCCCOc3cc(N)c(C(=O)N4CC(=C)C[C@H]4C4OCCN4C(=O)OCCSSc4ccccn4)cc3OC)cc2N)C1 (some centres undefined)
- IC50 [1]: 1.31 nM
- Activity (KB [2]): Active
- IC50 [4]: 184 nM

Compound: C=C1C[C@H]2C=Nc3cc(OCCCCCOc4cc(N)c(C(=O)N5CC(=C)C[C@H]5C5OCCN5C(=O)OCC(C)(C)SSCCC(=O)NCCNC(=O)CCOCCOCCOCCOCCNC(=O)CCN5C(=O)CC(SC[C@H](NC(=O)[C@H](CC(=O)O)NC(=O)[C@H](CC(=O)O)NC(=O)[C@H](CCCNC(=N)N)NC(=O)[C@H](CC(=O)O)NC(=O)CC[C@H](NC(=O)c6ccc(NCc7cnc8nc(N)[nH]c(=O)c8n7)cc6)C(=O)O)C(=O)O)C5=O)cc4OC)c(OC)cc3C(=O)N2C1 (some centres undefined)
- Activity [5]: Toxic
- IC50 [1]: 0.0522 nM
- Activity (KB [6]): Active
- Activity [7]: Toxic
- IC50 [4]: 3.78 nM
